# Measured values from patent US4835160A, “Derivatives of pyridoindole, having anti-tumor properties” (Sanofi, priority 1986, dated 1989).
# Assays:
# [1] = system: leukemia P 388; assay: Test of leukemia P 388; IP/IP, D1-5; assay type: in vivo, CDF1 hybrid mice; settings: D1-D5; for Number of survivors: day D30; for T/C %: survival time
# Method in brief: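 CDF1 hybrid mice received 10^6 P 388 cells intraperitoneally, then compound in distilled water by intraperitoneal route daily D1-D5, 10 mice per group, 5-fluorouracil as positive control. Activity judged as T/C survival time versus untreated controls, survivors counted at D30; T/C ≤85% or day 5 minus day 1 weight change ≤ −4 g counted as toxic.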
# [2] = in vivo; set-up: species or system female CDF1 hybrid mice; settings: mouse, iv
# Description: In addition the administration, to healthy female CDF1 hybrid mice, in a single injection by intravenous route with a perfusor, lasting 4 minutes, of the compounds under test in solution in physiological serum at a rate of 0.1 ml of solution per 10 g weight of the animals has enabled it to be established that the compounds are also well tolerated at a high dosage in these conditions.
# [3] = system: leukemia P388; assay: Test for leukemia P388, IP/IP, D1; assay type: in vivo, CDF1 hybrid mice; settings: for Number of survivors: day D30; for T/C %: survival time
# Description: The antitumour activity was tested in vivo on various tumours inoculated in various ways according to the following general protocol:
# All the male or female mice are inoculated on day D0 with a known quantity of viable tumour cells for ascitic tumours or with a known tumour fragment for solid tumours.
# They are then distributed into various groups. Each group, corresponding to the animals treated by the product under test, is made up of 10 mice. The product under test is dissolved in distilled water and it is administered n times (Dx-Dy), n, y, and x varying according to the protocol chosen, at the rate of 0.1 ml of solution per 10 g by weight of mice treated and at specific doses for each protocol.
# The "negative control" group, corresponding to the animals which are not treated by the product, contains 2√N animals, N being equal to or greater than the total number of mice treated by the product in the same experiment.
# Finally, the tests can also be carried out at the same time as the study of a group called "positive control", of ten animals, which is treated by a molecule, known for its antitumour activity and which can vary according to the protocol chosen, in the same conditions as the groups treated by the product under test.
# The antitumour activity is evaluated, in the case of ascitic tumours, by considering the increase in the survival time of the animals treated in comparison to that of the animals in the "negative control" group, according to the formula: [formula]
# Also, a product is considered as toxic at the dose studied when this T/C value is equal to or less than 85%. In addition, a product is also considered as toxic at the dose studied when the weight variation, expressed in grams and calculated by the formula: […]
# The tests are carried out with CDF1 hybrid mice inoculated by intraperitoneal route with 10^6 leukemia cells from the P 388 line. The compound under test is administered for 5 successive days (D1-D5) by intraperitoneal route. The positive control for the test is 5-fluorouracile which is administered in the same conditions. The number of surviving animals is evaluated on day D30.
# (b) Test for Leukemia P388, IP/IP, D1 (GERAN et al. Cancer chemother., 1972, 2, 07-57).
# The test is carried out according to the preceding protocol, the compound under test being administered only on day D1.
# [4] = in vivo; set-up: species or system CDF1 hybrid mice; settings: mouse, ip, 50 mg/kg
# Text: The compounds of the invention benefit from a good tolerance and a weak toxicity.
# Thus the administration, to healthy CDF1 hybrid mice, in a single injection by intraperitoneal route, of the compounds under test, has enabled it to be established that the product is perfectly tolerated at a high dosage since the survival rate of the animals of the experiment was 100 out of 100 thirteen days after administration.
# [5] = system: melanoma B 16; assay: Test for melanoma B 16; assay type: in vivo, BDF1 hybrid mice; settings: D1-D9; for Number of survivors: day D60; for T/C %: survival time
# Method in brief: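 BDF1 mice inoculated i.p. with 0.5 ml B16 melanoma homogenate (1 g tumour in 10 ml physiological serum); compound given i.p. daily D1–D9, Cis-platine positive control under same conditions. Surviving animals counted on D60; activity as survival increase vs untreated controls (T/C), toxicity if T/C ≤85%.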
smiles,measurement,setting,value
"CCN(CC)CCCNc1ncc(C)c2[nH]c3ccc(O)cc3c12 [Derivative No. 7, 1-(diethylaminopropylamino)-8-hydroxy-4-methyl-5H-pyrido[4,3-b]indole]",Median day of survival,[1]; 0.625 mg/kg IP,14.3 days
same,Variation by weight (g),[1]; 0.625 mg/kg IP,+0.3 g
same,Number of survivors,[1]; 0.625 mg/kg IP,0/10
same,T/C %,[1]; 0.625 mg/kg IP,127%
same,Median day of survival,[1]; 1.25 mg/kg IP,17.25 days
same,Variation by weight (g),[1]; 1.25 mg/kg IP,+0.3 g
same,Number of survivors,[1]; 1.25 mg/kg IP,0/10
same,T/C %,[1]; 1.25 mg/kg IP,153%
same,Median day of survival,[1]; 2.5 mg/kg IP,18.25 days
same,Variation by weight (g),[1]; 2.5 mg/kg IP,+0.1 g
same,Number of survivors,[1]; 2.5 mg/kg IP,0/10
same,T/C %,[1]; 2.5 mg/kg IP,162%
same,Median day of survival,[1]; 5 mg/kg IP,19.25 days
same,Variation by weight (g),[1]; 5 mg/kg IP,+0.3 g
same,Number of survivors,[1]; 5 mg/kg IP,0/10
same,T/C %,[1]; 5 mg/kg IP,170%
same,Median day of survival,[1]; 10 mg/kg IP,20.9 days
same,Variation by weight,[1]; 10 mg/kg IP,-0.2 g
same,Number of survivors,[1]; 10 mg/kg IP,0/10
same,T/C %,[1]; 10 mg/kg IP,185%
same,Median day of survival,[1]; 15 mg/kg IP,23.55 days
same,Variation by weight (g),[1]; 15 mg/kg IP,+1.6 g
same,Number of survivors,[1]; 15 mg/kg IP,3/10
same,T/C %,[1]; 15 mg/kg IP,208%
same,Median day of survival,[1]; 20 mg/kg IP,27.0 days
same,Variation by weight,[1]; 20 mg/kg IP,-1.1 g
same,Number of survivors,[1]; 20 mg/kg IP,1/10
same,T/C %,[1]; 20 mg/kg IP,238%
same,Median day of survival,[1]; 30 mg/kg IP,9.25 days
same,Variation by weight,[1]; 30 mg/kg IP,0.0 g
same,Number of survivors,[1]; 30 mg/kg IP,0/10
same,T/C %,[1]; 30 mg/kg IP,81%
same,survival at 192 h,[2]; 25 mg/kg,100%
same,survival at 192 h,[2]; 30 mg/kg,100%
same,Median day of survival,[3]; 10 mg/kg IP,15.1 days
same,Variation by weight (g),[3]; 10 mg/kg IP,+1.2 g
same,Number of survivors,[3]; 10 mg/kg IP,0/10
same,T/C %,[3]; 10 mg/kg IP,129%
same,Median day of survival,[3]; 20 mg/kg IP,16.25 days
same,Variation by weight (g),[3]; 20 mg/kg IP,+0.2 g
same,Number of survivors,[3]; 20 mg/kg IP,0/10
same,T/C %,[3]; 20 mg/kg IP,139%
same,Median day of survival,[3]; 40 mg/kg IP,15.9 days
same,Variation by weight,[3]; 40 mg/kg IP,-0.2 g
same,Number of survivors,[3]; 40 mg/kg IP,0/10
same,T/C %,[3]; 40 mg/kg IP,136%
same,Median day of survival,[3]; 80 mg/kg IP,2.3 days
same,Variation by weight,[3]; 80 mg/kg IP,-1.7 g
same,Number of survivors,[3]; 80 mg/kg IP,0/10
same,T/C %,[3]; 80 mg/kg IP,20%
same,survival at 312 h,[4],100%
same,Median day of survival,[5]; 2.5 mg/kg IP,34 days
same,Variation by weight (g),[5]; 2.5 mg/kg IP,+3.6 g
same,Number of survivors,[5]; 2.5 mg/kg IP,0/10
same,T/C %,[5]; 2.5 mg/kg IP,124%
same,Median day of survival,[5]; 5 mg/kg IP,48 days
same,Variation by weight,[5]; 5 mg/kg IP,-0.1 g
same,Number of survivors,[5]; 5 mg/kg IP,0/10
same,T/C %,[5]; 5 mg/kg IP,174%
same,Median day of survival,[5]; 10 mg/kg IP,56.25 days
same,Variation by weight (g),[5]; 10 mg/kg IP,+1.6 g
same,Number of survivors,[5]; 10 mg/kg IP,4/10
same,T/C %,[5]; 10 mg/kg IP,205%
same,Median day of survival,[5]; 20 mg/kg IP,58 days
same,Variation by weight,[5]; 20 mg/kg IP,-0.8 g
same,Number of survivors,[5]; 20 mg/kg IP,5/10
same,T/C %,[5]; 20 mg/kg IP,211%
same,Median day of survival,[5]; 30 mg/kg IP,9.0 days
same,Variation by weight,[5]; 30 mg/kg IP,-1.0 g
same,Number of survivors,[5]; 30 mg/kg IP,0/10
same,T/C %,[5]; 30 mg/kg IP,33%
